Reference: patent publication US20240158446A1, “CYCLIC COMPOUND HAVING SELECTIVE INHIBITORY ACTION ON KRAS OVER HRAS AND NRAS” (CHUGAI SEIYAKU KABUSHIKI KAISHA, priority 2021, published 2024)
Read-outs that look alike come from different tables or passages of the source.

Columns and labels:
[1] = molecular target: GDP-bound KRAS wild-type protein (Homo sapiens, UniProt P01116); test: Binding to KRAS by surface plasmon resonance (SPR), Single Cycle Kinetics; conditions: GDP-bound KRAS wild-type protein, read-out: KRAS KD
[2] = molecular target: GDP-bound NRAS wild-type protein (Homo sapiens, UniProt P01111); test: Binding to NRAS by surface plasmon resonance (SPR), Single Cycle Kinetics; conditions: for NRAS/KRAS (ratio of KD value with respect to GDP-bound NRAS wild-type protein to KD value with respect to KRAS): SPR KD ratio NRAS/KRAS, class symbols; for NRAS/KRAS (ratio of KD value for NRAS to KD value for KRAS): GDP-bound NRAS wild-type protein vs GDP-bound KRAS wild-type protein
[3] = molecular target: GDP-bound HRAS wild-type protein (Homo sapiens, UniProt P01112); test: Binding to HRAS by surface plasmon resonance (SPR), Single Cycle Kinetics; conditions: for HRAS/KRAS (ratio of KD value with respect to GDP-bound HRAS wild-type protein to KD value with respect to KRAS): SPR KD ratio HRAS/KRAS, class symbols; for HRAS/KRAS (ratio of KD value for HRAS to KD value for KRAS): GDP-bound HRAS wild-type protein vs GDP-bound KRAS wild-type protein
[4] = tested on: human lung cancer strain NCI-H441;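 further: cell proliferation inhibition after four days measured by CellTiter-Glo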
[5] = SPR Single Cycle Kinetics, 1:1 binding model
[6] = SPR, Single Cycle Kinetics, 1:1 binding model

Chain of GDP-bound HRAS wild-type protein (P01112 whole entry): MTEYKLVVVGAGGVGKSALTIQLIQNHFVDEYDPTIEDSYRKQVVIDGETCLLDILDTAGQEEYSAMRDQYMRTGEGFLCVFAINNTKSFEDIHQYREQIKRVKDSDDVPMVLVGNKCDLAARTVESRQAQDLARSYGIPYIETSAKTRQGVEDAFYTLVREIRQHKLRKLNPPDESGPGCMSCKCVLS
Chain of GDP-bound KRAS wild-type protein (P01116 whole entry): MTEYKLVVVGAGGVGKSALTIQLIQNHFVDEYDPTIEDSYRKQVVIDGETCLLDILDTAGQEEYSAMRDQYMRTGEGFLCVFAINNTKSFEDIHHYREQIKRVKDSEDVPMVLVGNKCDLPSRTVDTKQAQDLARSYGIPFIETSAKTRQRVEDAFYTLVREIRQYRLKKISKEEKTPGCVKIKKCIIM
Chain of GDP-bound NRAS wild-type protein (P01111 whole entry): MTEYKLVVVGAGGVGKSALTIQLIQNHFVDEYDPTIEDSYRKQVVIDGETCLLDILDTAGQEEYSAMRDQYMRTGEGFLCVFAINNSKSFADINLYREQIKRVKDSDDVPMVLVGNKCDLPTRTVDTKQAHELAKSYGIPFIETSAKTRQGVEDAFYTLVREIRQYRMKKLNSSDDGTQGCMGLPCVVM

IC50 [4] | Kd ([1]; SPR, Single Cycle Kinetics) | Kd [1, 6] | Compound | NRAS/KRAS (ratio of KD value for NRAS to KD value for KRAS) ([2]; SPR) | HRAS/KRAS (ratio of KD value for HRAS to KD value for KRAS) ([3]; SPR) | NRAS/KRAS (ratio of KD value for NRAS to KD value for KRAS) ([2]; SPR, KD ratio class) | HRAS/KRAS (ratio of KD value for HRAS to KD value for KRAS) ([3]; SPR, KD ratio class) | also measured
122 nM |  |  | CCOC[C@H]1C(=O)N[C@@H]([C@@H](C)CC)C(=O)N(C2CC2)CC(=O)N(C)[C@H]2C/C=C\CCN(C2=O)[C@@H](Cc2ccc(C)cc2)C(=O)N(C)CC(=O)N[C@@H](CCc2ccc(Cl)c(Cl)c2)C(=O)N2C[C@H](OCC)C[C@H]2C(=O)NC2(CC(C)(C)C2)C(=O)N(C)[C@@H](CC2CCC2)C(=O)N(C)[C@H](C(=O)N(C)C)CC(=O)N1C [PP2762] |  |  |  |  | Kd [1, 5]: 2.9 nM; NRAS/KRAS (ratio of KD value with respect to GDP-bound NRAS wild-type protein to KD value with respect to KRAS) [2]: A (a compound having 10 or more and less than 20 is denoted as A); HRAS/KRAS (ratio of KD value with respect to GDP-bound HRAS wild-type protein to KD value with respect to KRAS) [3]: A (a compound having 10 or more and less than 20 is denoted as A)
120 nM |  |  | CCC[C@H]1C(=O)N[C@@H]([C@@H](C)CC)C(=O)N(C2CC2)CC(=O)N(C)[C@H]2C/C=C\CCN(C2=O)[C@@H](Cc2ccc(C(F)(F)F)cc2)C(=O)N(C)CC(=O)N[C@@H](CCc2cc(F)c(C(F)(F)F)c(F)c2)C(=O)N2C[C@H](OCC)C[C@H]2C(=O)NC2(CC(C)(C)C2)C(=O)N(C)[C@@H](CC2CCC2)C(=O)N(C)[C@H](C(=O)N(C)C)CC(=O)N1C [PP2768] |  |  |  |  | Kd [1, 5]: 5.5 nM; NRAS/KRAS (ratio of KD value with respect to GDP-bound NRAS wild-type protein to KD value with respect to KRAS) [2]: A (a compound having 10 or more and less than 20 is denoted as A); HRAS/KRAS (ratio of KD value with respect to GDP-bound HRAS wild-type protein to KD value with respect to KRAS) [3]: A (a compound having 10 or more and less than 20 is denoted as A)
4.5 nM | 0.048 nM |  | CCC[C@H]1C(=O)N[C@@H]([C@@H](C)CC)C(=O)N(C2CC2)CC(=O)N(C)[C@H]2C/C=C\CCN(C2=O)[C@@H](Cc2ccc(C)cc2)C(=O)N(C)CC(=O)N[C@@H](CCc2ccc(C(F)(F)F)c(OC)c2)C(=O)N2C[C@@H](C)C[C@H]2C(=O)N(C)C2(CCC2)C(=O)N(C)[C@@H](C2CCCC2)C(=O)N(C)[C@H](C(=O)N(C)C)CC(=O)N1C [PP2366] | A (a compound having 10 or more and less than 20 is denoted as A) | A (a compound having 10 or more and less than 20 is denoted as A) |  |  | 
10.3 nM | 0.093 nM |  | CCCO[C@H](C)[C@@H]1NC(=O)[C@H](CC(C)C)N(C)C(=O)C[C@@H](C(=O)N(C)C)N(C)C(=O)[C@H](C2CCCC2)N(C)C(=O)C2(CC(C)(C)C2)NC(=O)[C@@H]2C[C@H](C)CN2C(=O)[C@H](CCc2ccc(C(F)(F)F)c(OC)c2)NC(=O)CN(C)C(=O)[C@H](Cc2ccc(C)cc2)N2CC/C=C\C[C@@H](C2=O)N(C)C(=O)CN(C)C1=O [PP2415] | AA (a compound having 20 or more is denoted as AA) | A (a compound having 10 or more and less than 20 is denoted as A) |  |  | 
140 nM | 0.21 nM |  | CC[C@H](C)[C@@H]1NC(=O)[C@H](CC)N(C)C(=O)C[C@@H](C(=O)N(C)C)N(C)C(=O)[C@H](C2CCCC2)N(C)C(=O)C2(CCC2)NC(=O)[C@H](COC)N(C)C(=O)[C@H](CCc2cc(F)c(C(F)(F)F)c(F)c2)NC(=O)CN(C)C(=O)[C@H](Cc2ccc(C(F)(F)F)cc2)N2CC/C=C\C[C@@H](C2=O)N(C)C(=O)CN(C)C1=O [PP1145] | A (a compound having 10 or more and less than 20 is denoted as A) | B (a compound having 3 or more and less than 10 is denoted as B) |  |  | 
21 nM | 0.15 nM |  | CCO[C@H](C)[C@@H]1NC(=O)[C@H](CC(C)C)N(C)C(=O)C[C@@H](C(=O)N(C)C)N(C)C(=O)[C@H](C2CCCC2)N(C)C(=O)C2(CC(C)(C)C2)NC(=O)[C@@H]2C[C@H](C)CN2C(=O)[C@H](CCc2ccc(C(F)(F)F)c(OC)c2)NC(=O)CN(C)C(=O)[C@H](Cc2ccc(C)cc2)N2CC/C=C\C[C@@H](C2=O)N(C)C(=O)CN(C)C1=O [PP2412] | A (a compound having 10 or more and less than 20 is denoted as A) | B (a compound having 3 or more and less than 10 is denoted as B) |  |  | 
178 nM |  | 1.1 nM | CCO[C@@H]1C[C@H]2C(=O)NC3(CCCC3)C(=O)N(C)[C@@H](C(CC)CC)C(=O)N(C)[C@H](C(=O)N3CCCC3)CC(=O)N(C)[C@@H](C)C(=O)N[C@@H]([C@@H](C)CC)C(=O)N(C)CC(=O)N(C)[C@H]3C/C=C\CCN(C3=O)[C@@H](CC3CCCCC3)C(=O)N(C)CC(=O)N[C@@H](CCc3cc(F)c(C(F)(F)F)c(F)c3)C(=O)N2C1 [PP1435] |  |  | A (a compound having 10 or more and less than 20 is denoted as A) | A (a compound having 10 or more and less than 20 is denoted as A) | 
 | 0.2 nM |  | CC[C@H](C)[C@@H]1NC(=O)[C@@H]2CCCc3ccc(cc3)C[C@@H](C(=O)N(C)CC(=O)N[C@@H](CCc3ccc(C(F)(F)F)c(OC)c3)C(=O)N3C[C@H](OC4CCCC4)C[C@H]3C(=O)NC3(CC(C)(C)C3)C(=O)N(C)[C@@H](C3CCCC3)C(=O)N(C)[C@H](C(=O)N(C)CC)CC(=O)N2C)N2CC/C=C\C[C@@H](C2=O)N(C)C(=O)CN(C)C1=O [PP3086] | B (a compound having 3 or more and less than 10 is denoted as B) | B (a compound having 3 or more and less than 10 is denoted as B) |  |  | ratio of the KD value with respect to GDP-bound NRAS wild-type protein to the KD value with respect to KRAS ([2]; SPR, KD(NRAS)/KD(KRAS)): B (a compound having 3 or more and less than 10 is denoted as B); ratio of the KD value with respect to GDP-bound HRAS wild-type protein to the KD value with respect to KRAS ([3]; SPR, KD(HRAS)/KD(KRAS)): B (a compound having 3 or more and less than 10 is denoted as B); IC50 ([4]; read-out: NCI-H441 cell proliferation inhibitory activity, 50% proliferation inhibitory concentration (IC50 value), NCI-H441, four days, CellTiter-Glo): 7.9 nM
111 nM |  | 0.6 nM | CC[C@H](C)[C@@H]1NC(=O)[C@H](CC2CC2)N(C)C(=O)C[C@@H](C(=O)N(C)C)N(C)C(=O)[C@H](C2CCCC2)N(C)C(=O)C2(CCC2)NC(=O)[C@H](CC(F)F)N(C)C(=O)[C@H](CCc2cc(F)c(C(F)(F)F)c(F)c2)NC(=O)CN(C)C(=O)[C@H](Cc2ccc(C(F)(F)F)cc2)N2CC/C=C\C[C@@H](C2=O)N(C)C(=O)CN(C)C1=O [PP1403] |  |  | AA (a compound having 20 or more is denoted as AA) | A (a compound having 10 or more and less than 20 is denoted as A) | 
12.8 nM |  | 0.076 nM | CCCCCC[C@H]1C(=O)N[C@@H]([C@@H](C)CC)C(=O)N(C)CC(=O)N(C)[C@H]2C/C=C\CCN(C2=O)[C@@H](Cc2ccc(C(F)(F)F)cc2)C(=O)N(C)CC(=O)N[C@@H](CCc2cc(F)c(C(F)(F)F)c(F)c2)C(=O)N2C[C@H](OCC)C[C@H]2C(=O)NC2(CCC2)C(=O)N(C)[C@@H](C2CCCC2)C(=O)N(C)[C@H](C(=O)N(C)C)CC(=O)N1C [PP1242, (2S,8S,12R,14S,20S,23S,27S,30S,36S,38Z)-20-cyclopentyl-8-[2-[3,5-difluoro-4-(trifluoromethyl)phenyl]ethyl]-12-ethoxy-27-hexyl-N,N,4,19,22,26,32,35-octamethyl-30-[(1S)-1-methylpropyl]-3,6,9,15,18,21,25,28,31,34,42-undecaoxo-2-[[4-(trifluoromethyl)phenyl]methyl]spiro[1,4,7,10,16,19,22,26,29,32,35-undecazatricyclo[34.5.1.0^10,14]dotetracont-38-ene-17,1′-cyclobutane]-23-carboxamide] |  |  | A (a compound having 10 or more and less than 20 is denoted as A) | A (a compound having 10 or more and less than 20 is denoted as A) | 
4.8 nM | 0.076 nM |  | CCC[C@H]1C(=O)N[C@@H]([C@@H](C)CC)C(=O)N2CCC[C@H]2C(=O)N(C)[C@H]2C/C=C\CCN(C2=O)[C@@H](Cc2ccc(C(F)(F)F)cc2)C(=O)N(C)CC(=O)N[C@@H](CCc2ccc(C(F)(F)F)c(OC)c2)C(=O)N2C[C@@H](C)C[C@H]2C(=O)N(C)C2(CCC2)C(=O)N(C)[C@@H](C2CCCC2)C(=O)N(C)[C@H](C(=O)N(C)C)CC(=O)N1C [PP2362] | A (a compound having 10 or more and less than 20 is denoted as A) | A (a compound having 10 or more and less than 20 is denoted as A) |  |  | 
76.4 nM |  | 0.45 nM | CCO[C@@H]1C[C@H]2C(=O)NC3(CCC3)C(=O)N(C)[C@@H](C3CCCC3)C(=O)N(C)[C@H](C(=O)N(C)C)CC(=O)N(C)[C@@H](CC(C)C)C(=O)N[C@@H]([C@@H](C)CC)C(=O)N(C)CC(=O)N(C)[C@H]3C/C=C\CCN(C3=O)[C@@H](Cc3ccc(F)cc3)C(=O)N(C)CC(=O)N[C@@H](CCc3ccc(Cl)c(Cl)c3)C(=O)N2C1 [PP1482] |  |  | A (a compound having 10 or more and less than 20 is denoted as A) | B (a compound having 3 or more and less than 10 is denoted as B) | 
506 nM |  |  | CCC[C@H]1C(=O)N[C@@H](CC(C)C)C(=O)N2C[C@@H](OC)C[C@H]2C(=O)N(C)[C@H]2C/C=C\CCN(C2=O)[C@@H](Cc2ccc(C)cc2)C(=O)N(C)CC(=O)N[C@@H](CCc2ccc(C(F)(F)F)c(Cl)c2)C(=O)N2C[C@H](OCC)C[C@H]2C(=O)NC2(CCC2)C(=O)N(C)[C@@H](C2CCCC2)C(=O)N(C)[C@H](C(=O)N(C)C)CC(=O)N1C [PP2549] |  |  |  |  | Kd [1, 5]: 6 nM; NRAS/KRAS (ratio of KD value with respect to GDP-bound NRAS wild-type protein to KD value with respect to KRAS) [2]: A (a compound having 10 or more and less than 20 is denoted as A); HRAS/KRAS (ratio of KD value with respect to GDP-bound HRAS wild-type protein to KD value with respect to KRAS) [3]: B (a compound having 3 or more and less than 10 is denoted as B)
